# Data: patent publication US6794412B1, “Treatment of thrombosis by combined use of a factor Xa inhibitor and aspirin” (Bristol-Myers Squibb Pharma Company, priority 1999, dated 2004)
# System: rabbit model of arterial thrombosis
# Experiment: Electrically induced carotid artery thrombosis in rabbits, carotid blood flow over 90 min
# Format: in vivo
# Description: Rabbits were anesthetized with ketamine (50 mg/kg i.m.) and xylazine (10 mg/kg i.m.) and then surgically prepared with arterial and venous catheters. An electromagnetic flow probe was placed on a segment of an isolated carotid artery to monitor blood flow. Thrombus formation was induced by electrical stimulation of the carotid artery for 3 min at 4 mA using an external stainless-steel bipolar electrode. Carotid blood flow was measured continuously over a 90-min period to monitor thrombus occlusion. Test agents were infused intravenously 1 hour prior to the electrical stimulation of the carotid artery and continuously during the 90-min period.
# [1] = Factor Xa inhibitor alone 0.1 mg/kg/hr i.v. infusion
Structure (SMILES),prevention of occlusion of the carotid artery [1],also measured
NCc1cccc(-n2nc(C(F)(F)F)cc2C(=O)Nc2ccc(-c3ccccc3S(N)(=O)=O)cc2)c1.O=C(O)C(F)(F)F [Compound (3)],did not prevent the occlusion of the artery,
CC(=O)Oc1ccccc1C(=O)O [Aspirin],,prevention of occlusion of the carotid artery (aspirin alone 1 mg/kg/hr i.v. infusion from 1 hour before stimulation and during 90 min): did not prevent the occlusion of the artery
CS(=O)(=O)c1ccccc1-c1ccc(NC(=O)c2cc(C(F)(F)F)nn2-c2cccc(CN)c2)c(F)c1.O=C(O)C(F)(F)F [Compound (1)],did not prevent the occlusion of the artery,
CS(=O)(=O)O.Cc1noc(C)c1S(=O)(=O)N[C@@H](CNC(=O)C[C@H]1CC(c2ccc(C(=N)N)cc2)=NO1)C(=O)O [Compound (4)],,prevention of occlusion of the carotid artery (Compound (4) alone 0.03 mg/kg/hr i.v.): did not prevent the occlusion of the artery
